Laboratory results published in patent US7001926B2, “Tubulin binding agents and corresponding prodrug constructs” (Oxigene, Inc., priority 2000, dated 2006).
Read-outs that look alike come from different tables or passages of the source.

Experiments:
tubulin = assay: Inhibition of tubulin polymerization assay; type: biochemical; settings: read-out: IC50, In Vitro Inhibition of Tubulin Polymerization; purified bovine brain tubulin, 15 min preincubation at 37° C.
Method: IC50 values for tubulin polymerization were determined according to a previously described procedure (Bai et al, Cancer Research, 1996). Purified tubulin is obtained from bovine brain cells as described in Hamel and Lin (Hamel and Lin, Biochemistry, 1984). Various amounts of inhibitor were preincubated for 15 minutes at 37° C. with purified tubulin. After the incubation period, the reaction was cooled and GTP was added to induce tubulin polymerization. Polymerization was then monitored in a Gilford spectrophotometer at 350 nm. The final reaction mixtures (0.25 ml) contained 1.5 mg/ml tubulin, 0.6 mg/ml microtubule-associated proteins (MAPs), 0.5 mM GTP, 0.5 mM MgCl2, 4% DMSO and 0.1M 4-morpholineethanesulfonate buffer (MES, pH 6.4).

SF-295 = assay: Growth inhibition, SF-295 CNS cancer cell line (SRB); type: cell-based, human; settings: 48 hours
Method: (§1) Briefly, the cell suspensions, diluted according to the particular cell type and the expected target cell density (5,000–40,000 cells per well based on cell growth characteristics), were added by pipet (100 μl) to 96-well microtiter plates. Inoculates were allowed a preincubation time of 24–28 hours at 37° C. for stabilization. Incubation with the inhibitor compounds lasted for 48 hours in 5% CO2 atmosphere and 100% humidity. Determination of cell growth was performed by in situ fixation of cells, followed by staining with a protein-binding dye sulforhodamine B (SRB), which binds to the basic amino acids of cellular macromolecules. The solubilized stain was measured spectrophotometrically.
(§2) Several compounds were evaluated for cytotoxic activity against […] P388 leukemia cell lines. […] These and additional compounds were evaluated in terms of growth inhibitory activity against several other human cancer cell lines including: central nervous system (“CNS”, SF-295), pancreas (BXPC-3), non-small cell lung cancer (“lung-NSC”, NCI-H460), breast (MCF-7), colon (KM20L2), and prostate (DU-145).

BXPC-3 = assay: Growth inhibition, BXPC-3 pancreas cancer cell line (SRB); type: cell-based, human; settings: 48 hours
Method: as §1, §2

NCI-H460 = assay: Growth inhibition, NCI-H460 non-small cell lung cancer cell line (SRB); type: cell-based, human; settings: lung-NSC, 48 hours
Method: as §1, §2

KM20L2 = assay: Growth inhibition, KM20L2 colon cancer cell line (SRB); type: cell-based, human; settings: 48 hours
Method: as §1, §2

MCF-7 = assay: Growth inhibition, MCF-7 breast cancer cell line (SRB); type: cell-based, human; settings: 48 hours
Method: as §1, §2

DU-145 = assay: Growth inhibition, DU-145 prostate cancer cell line (SRB); type: cell-based, human; settings: 48 hours
Method: as §1, §2

[1] = system: murine hemangioendothelioma MHEC-5T cell line; assay: In vitro antiproliferative activity, MTT assay; type: cell-based
Method: The following compounds were tested for in vitro antiproliferative activity against the murine hemangioendothelioma MHEC-5T cell line using a standard MTT assay (see Mosman, J. Immunol. Methods, 1983). In actively proliferating cells, an increase in MTT conversion is spectrophotometrically quantified by the reduction of MTT (3-[4,5-dimethylthiazol-2-yl]-2,5-diphenyl tetrazolium bromide) to the insoluble formazan dye by enzymes associated with metabolic activity. A compound with growth inhibitory activity will cause a reduction in dye formation relative to cells exposed to a vehicle control.

[2] = system: MDA-MB-231 human breast adenocarcinoma; assay: Tumor growth control in vivo; set-up: species or system SCID mice
Method: The antitumor activity of C-5 dihydronaphthalene phosphate prodrug, Oxi-com 197, was assessed in tumor-bearing mice by measuring its effects on tumor volume in comparison with CA4P. A human breast adenocarcinoma model was established by subcutaneous injection of cultured MDA-MB-231 cells in Fox Chase CB-17 SCID mice. When the average tumor size reached 50–100 mm^3, mice were randomly divided into several groups (n=10) with no significant difference in body weight and tumor size. Mice were administered CA4P or Oxi-com 197 in saline carrier at doses of 25, 50 or 100 mg/kg by daily intraperitoneal (i.p.) injection for 5 consecutive days (Q1×5). Saline carrier only was used as the control treatment. On Day 3, 7, 10, 13, 17 and 23, tumors were excised from animals in each treatment group (n=2) and measured by width and length. Tumor volume was calculated according to the following formula: Length×Width^2×0.4. The dosage effects of Oxi-com 197 is illustrated in FIG. 14.

[3] = system: MHEC-5T hemangioendothelioma tumor; assay: Inhibition of tumor blood flow, Fluorescent Bead Assay; type: in vivo, SCID mice; settings: for % VAPM (vessel area per tumor tissue area as a percentage of the control) / % VNPM (vessel number per tumor tissue area as a percentage of the control): 24 hours post-treatment
Method: The antivascular effects of the C-5 dihydronaphthalene phosphate prodrug Oxi-com 197, 43 was assessed in tumor-bearing mice using a Fluorescent Bead Assay. A MHEC-5T hemangioendothelioma tumor model was established by subcutaneous injection of 0.5×10^6 cultured transformed cell murine myocardial vascular endothelial cell line (“MHEC5-T”) cells into the right flank of Fox Chase CB-17 Severe Combined Immunodeficient (“SCID”) mice. When transplanted tumors reached a size of 500 mm^3 (a size without development of necrosis), the mice received a single intraperitoneal (i.p.) injection of saline control or compound at doses ranging from 3.2 to 25 mg/kg. At 24 hours post-treatment, mice were injected intravenously with 0.25 ml of diluted FluoSphere beads (1:6 in physiological saline) in the tail vein, sacrificed after 3 minutes, and tumor was excised for cryosectioning. Tumor cryosections at a thickness of 8 um were directly examined using quantitative fluorescent microscopy. Blood vessels were indicated by blue fluorescence from injected beads. For quantification, image analysis of 3 sections from three tumors treated in each group were examined and vascular shutdown was expressed as vessel area (mm^2) per tumor tissue area (mm^2) as a percentage of the control (“% VAPM”) and as vessel number per tumor tissue area (mm^2) as a percentage of the control (“% VNPM”). The results as shown in Table 11 indicate a clear dose-dependent effect of the agent on tumor blood flow as indicated by the reduction in blood vessel number and vessel area. Administration of a 25 mg/kg dose of Oxi-com 197 was particularly effective, causing a 90% reduction in tumor vessel number relative to the control.
Additional compounds of the present invention were tested for antivascular effects at two dosages (100 mg/kg and 10 mg/kg) using the same Fluorescent Bead Assay as in the previous experiment.

[4] = 5 days, read-out: IC50 at 5 days
[5] = read-out: IC50 at 1 hour, 1 hour

CCOP(=O)(Nc1c(OC)ccc2c1CCC=C2c1cc(OC)c(OC)c(OC)c1)OCC [Oxi-com 143, 6-methoxy-1-(3′,4′,5′-trimethoxyphenyl)-5-diethylphosphoramidate-3,4-dihydronapthalene]
IC50 (tubulin): > 40000 nM

COc1cc2c(cc1O)C(c1cc(OC)c(OC)c(OC)c1)=CCC2 [Oxi-com 158]
GI50 for Cell Line SF-295 (SF-295): 5.4 µg/mL | GI50 for Cell Line BXPC-3 (BXPC-3): 1.8 µg/mL | GI50 for Cell Line NCI-H460 (NCI-H460): 3.2 µg/mL | GI50 for Cell Line KM20L2 (KM20L2): 2.6 µg/mL | GI50 for Cell Line MCF-7 (MCF-7): 1.5 µg/mL | GI50 for Cell Line DU-145 (DU-145): 3.4 µg/mL

COc1cc(C2=CCCc3c2ccc(OC)c3OP(=O)([O-])[O-])cc(OC)c1OC.[Na+].[Na+] [Oxi-com 197]
IC50 [1, 4]: 3 nM | IC50 [1, 5]: 100 nM | GI50 for Cell Line SF-295 (SF-295): 0.0033 µg/mL | GI50 for Cell Line BXPC-3 (BXPC-3): 0.28 µg/mL | GI50 for Cell Line NCI-H460 (NCI-H460): 0.011 µg/mL | GI50 for Cell Line KM20L2 (KM20L2): 0.33 µg/mL | GI50 for Cell Line MCF-7 (MCF-7): 0.0045 µg/mL | tumor growth (tumor volume) relative to control treatment ([2]; 25, 50, and 100 mg/kg i.p. daily for 5 days (Q1×5)): significantly inhibited tumor growth | antitumor activity relative to CA4P ([2]; MDA-MB-231 model, i.p. Q1×5): enhanced antitumor activity relative to CA4P | GI50 for Cell Line DU-145 (DU-145): 0.0055 µg/mL | % VAPM (vessel area per tumor tissue area as a percentage of the control) ([3]; 6.3 mg/kg single i.p.): 65.4 ± 4.9% | % VNPM (vessel number per tumor tissue area as a percentage of the control) ([3]; 6.3 mg/kg single i.p.): 66.5 ± 0.5% | % VAPM (vessel area per tumor tissue area as a percentage of the control) ([3]; 12.5 mg/kg single i.p.): 32.2 ± 6.8% | % VNPM (vessel number per tumor tissue area as a percentage of the control) ([3]; 12.5 mg/kg single i.p.): 55.5 ± 0.8% | reduction in tumor vessel number relative to the control ([3]; 25 mg/kg dose): 90% | % VAPM (vessel area per tumor tissue area as a percentage of the control) ([3]; 25 mg/kg single i.p.): 13.0 ± 5.0% | % VNPM (vessel number per tumor tissue area as a percentage of the control) ([3]; 25 mg/kg single i.p.): 10.4 ± 6.3%

COc1cc(C2=CCCc3c2cc(OP(=O)(O)O)c(OC)c3OP(=O)(O)O)cc(OC)c1OC [Oxi-com 199]
IC50 [1, 4]: > 44800 nM | IC50 [1, 5]: > 44800 nM | IC50 (tubulin): > 40000 nM

COc1cc(C2=CCCc3c2cc(O)c(OC)c3O)cc(OC)c1OC [Oxi-com 200]
IC50 [1, 4]: 16200 nM | IC50 [1, 5]: > 50000 nM

COc1cc(C(=O)C2=CCCc3c2ccc(OC)c3OP(=O)([O-])[O-])cc(OC)c1OC.[Na+].[Na+] [Oxi-com 224]
IC50 [1, 4]: 3 nM | IC50 [1, 5]: 400 nM | % VAPM at 10 mg/kg dose [3]: 17% | % VAPM at 100 mg/kg dose [3]: 46%

COc1cc(C(=O)c2cccc3c(OP(=O)([O-])[O-])c(OC)ccc23)cc(OC)c1OC.[Na+].[Na+] [Oxi-com 225]
IC50 [1, 4]: 5 nM | IC50 [1, 5]: 400 nM | % VAPM at 10 mg/kg dose [3]: 35% | % VAPM at 100 mg/kg dose [3]: 60%

COc1ccc2c(c1NC(=O)[C@@H](N)CO)CCC=C2c1cc(OC)c(OC)c(OC)c1 [Oxi-com 229]
IC50 [1, 4]: > 1400 nM | IC50 [1, 5]: > 44000 nM

COc1ccc(C2=CCCc3c2ccc(OC)c3O)c(OC)c1 [Oxi-com 238]
IC50 [1, 4]: 40 nM | IC50 [1, 5]: 14000 nM

COc1ccc(C2=CCCc3c2ccc(OC)c3OP(=O)(O)O)c(OC)c1 [Oxi-com 239]
IC50 [1, 4]: 60 nM | IC50 [1, 5]: 2400 nM

COc1ccc(OC)c(C2=CCCc3c2ccc(OC)c3O)c1 [Oxi-com 240]
IC50 [1, 4]: 30 nM | IC50 [1, 5]: 8000 nM

COc1ccc(OC)c(C2=CCCc3c2ccc(OC)c3OP(=O)(O)O)c1 [Oxi-com 241]
IC50 [1, 4]: 80 nM | IC50 [1, 5]: 2500 nM

COc1ccc(C2=CCCc3c2ccc(OC)c3OP(=O)(O)O)cc1OC [Oxi-com 243]
IC50 [1, 4]: 300 nM | IC50 [1, 5]: 20000 nM
